In ChEMBL document CHEMBL1921721, “Benzenepolycarboxylic acids with potential anti-hemorrhagic properties and structure-activity relationships” (Bioorg Med Chem, 2011):

Assays:
[1] = Dissociation constant, pKa of the compound; type: physicochemical
Mus musculus [2] = assay: Antihemorrhagic activity in ddY mouse assessed as inhibition of Protobothrops flavoviridis venom-induced hemorrhagic lesion formation compound incubated with venom for 10 mins and administered subcutaneously measured after 24 hrs; type: functional, organism-based
Mus musculus [3] = assay: Ratio of benzoic acid IC50 to compound IC50 for antihemorrhagic activity in ddY mouse assessed as inhibition of Protobothrops flavoviridis venom-induced hemorrhagic lesion formation compound incubated with venom for 10 mins and administered subcutaneously measured after 24 hrs; type: functional
Mus musculus [4] = assay: Ratio of caffeic acid IC50 to compound IC50 for antihemorrhagic activity in ddY mouse assessed as inhibition of Protobothrops flavoviridis venom-induced hemorrhagic lesion formation compound incubated with venom for 10 mins and administered subcutaneously measured after 24 hrs; type: functional

| Compound | pKa [1] | IC50 (Mus musculus [2]) [nM] | Ratio IC50 (Mus musculus [3]) | Ratio IC50 (Mus musculus [4]) |
| --- | --- | --- | --- | --- |
| Cc1ccc(C(=O)O)cc1 [4-METHYLBENZOIC ACID] | 4.37 | 220 |  |  |
| O=C(O)c1c(C(=O)O)c(C(=O)O)c(C(=O)O)c(C(=O)O)c1C(=O)O [MELLITIC ACID] | 1.15 | 43 |  |  |
| O=C(O)/C=C/c1ccc(O)c(O)c1 [CAFFEIC ACID] | 4.58 |  |  |  |
| O=C(O)c1ccc(C(=O)O)cc1 [TEREPHTHALIC ACID] |  | 90 | 2 | 2 |
| O=C(O)c1ccccc1Cl | 2.97 | 250 |  |  |
| O=C(O)c1ccc(O)cc1 [PARABEN] | 4.57 | 200 |  |  |
| O=C(O)c1ccc([N+](=O)[O-])cc1 [4-NITROBENZOIC ACID] | 3.42 | 240 |  |  |
| O=C(O)/C=C/C=C/C(=O)O |  | 110 |  |  |
| O=C(O)c1cccc(C(=O)O)c1 [ISOPHTHALIC ACID] |  | 100 | 2 | 2 |
| O=C(O)c1cc(C(=O)O)c(C(=O)O)c(C(=O)O)c1C(=O)O [BENZENEPENTACARBOXYLIC ACID] | 1.93 | 43 |  |  |
| O=C(O)c1ccccc1O [SALICYLIC ACID] |  | 200 |  |  |
| O=C(O)c1ccccc1C(=O)O [PHTHALIC ACID] |  | 100 | 2 | 2 |
| O=C(O)c1ccc(C(=O)O)c(C(=O)O)c1 | 2.84 | 62 |  |  |
| O=C(O)c1cc(C(=O)O)cc(C(=O)O)c1 | 2.98 | 67 |  |  |
| O=C(O)c1cccc(O)c1 [3-HYDROXYBENZOIC ACID] | 4.08 | 200 |  |  |
| O=C(O)c1ccccc1[N+](=O)[O-] |  | 260 |  |  |
| O=C(O)c1ccccc1 [BENZOIC ACID] |  | 200 |  |  |
| O=C(O)c1cc(C(=O)O)c(C(=O)O)cc1C(=O)O [PYROMELLITIC ACID] | 1.87 | 35 |  |  |
